The source of these data is patent US12344603B2 (Genentech, Inc., priority 2020, dated 2025).

For the experiment, the target named is IRE1α (Homo sapiens (Human), UniProt O75460, D688N). Kind of experiment: IRE1α TR-FRET competition binding assay (IRE1α HTRF). The conditions noted are these: TR-FRET competition binding to kinase domain of IRE1α. Put shortly: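 Kinase domain (0.25 nM) pre-bound to 2 nM Eu anti-His antibody for 1 h at 4° C in HEPES pH 7.5/MgCl2/Brij 35/DTT/gamma globulin buffer, then mixed with compounds and 2 nM Alexa 647 ATP-competitive probe. 1 h at room temperature; probe displacement read as TR-FRET (Ex 347 nm, Em 665/615 nm).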
Sequence of IRE1α (O75460 547-977 D688N): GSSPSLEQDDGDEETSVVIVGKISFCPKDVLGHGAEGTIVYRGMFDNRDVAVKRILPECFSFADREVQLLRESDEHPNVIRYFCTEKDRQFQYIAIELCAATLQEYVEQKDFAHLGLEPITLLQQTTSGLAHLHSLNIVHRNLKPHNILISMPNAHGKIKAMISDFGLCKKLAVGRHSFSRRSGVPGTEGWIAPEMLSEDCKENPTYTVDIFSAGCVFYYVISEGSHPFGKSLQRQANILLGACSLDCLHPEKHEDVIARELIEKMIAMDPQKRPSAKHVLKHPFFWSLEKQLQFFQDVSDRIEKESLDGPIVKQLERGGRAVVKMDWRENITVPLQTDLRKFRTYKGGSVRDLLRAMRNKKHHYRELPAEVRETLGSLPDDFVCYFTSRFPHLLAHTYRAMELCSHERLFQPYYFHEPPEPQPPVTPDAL

`Cc1nc(NS(=O)(=O)c2ccccc2Cl)ccc1-c1nc2cnc(N[C@H]3CC[C@H](N(C)C)CC3)nc2n(C(C)C)c1=O` [Example 254, N-[5-[2-[[4-(Dimethylamino)cyclohexyl]amino]-8-isopropyl-7-oxo-pteridin-6-yl]-6-methyl-2-pyridyl]-2-chloro-benzenesulfonamide]: the IC50 (in general, the midpoint of a concentration-inhibition curve) stood at 0.3 nM.
With `CC(C)n1c(=O)c(-c2ccc(NS(=O)(=O)CC3CC34CC4)c(F)c2)nc2cnc(N[C@H]3CC[C@H](N(C)C)CC3)nc21` (some centres unmarked) [Example 256, N-[4-[2-[[4-(Dimethylamino)cyclohexyl]amino]-8-isopropyl-7-oxo-pteridin-6-yl]-2-fluoro-phenyl]-1-spiro[2.2]pentan-2-yl-methanesulfonamide] the figure was 0.3 nM.
`CC(C)n1c(=O)c(-c2ccc(NS(=O)(=O)Cc3ccc(F)cc3)c(F)c2)nc2cnc(N[C@H]3CC[C@H](N(C)C)CC3)nc21` [Compound 184, N-(4-(2-(((1r,4r)-4-(dimethylamino)cyclohexyl)amino)-8-isopropyl-7-oxo-7,8-dihydropteridin-6-yl)-2-fluorophenyl)-1-(4-fluorophenyl)methanesulfonamide] had an IC50 of 0.25 nM. The IC50 values of the last two molecules are within 1.5-fold of each other.
As for `CC(C)n1c(=O)c(-c2ccc(NS(=O)(=O)CCC(F)(F)F)cn2)cc2cnc(N[C@H]3CC[C@H](N(C)C)CC3)nc21` [Example 218, N-(6-(2-(((1r,4r)-4-(dimethylamino)cyclo-hexyl)amino)-8-isopropyl-7-oxo-7,8-dihydropyrido[2,3-d]-pyrimidin-6-yl)pyridin-3-yl)-3,3,3-trifluoro-propane-1-sulfonamide], the IC50 came to 0.2 nM.
With `CC(C)n1c(=O)c(-c2ccc(NS(=O)(=O)CC3CCCCC3)nc2)cc2cnc(N[C@H]3CC[C@H](N(C)C)CC3)nc21` [Compound 152, 1-Cyclohexyl-N-(5-(2-(((1r,4r)-4-(dimethylamino)cyclohexyl)amino)-8-isopropyl-7-oxo-7,8-dihydropyrido[2,3-d]pyrimidin-6-yl)pyridin-2-yl)methanesulfonamide] the figure was 0.18 nM; with `CC(C)n1c(=O)c(-c2ccc(NS(=O)(=O)Cc3ccccc3)c(F)c2)nc2cnc(N[C@@H]3CC[C@@H](N(C)C)[C@H](F)C3)nc21` (stereo in doubt) [Compound 192B, N-(4-(2-((4-(Dimethylamino)-3-fluorocyclohexyl)amino)-8-isopropyl-7-oxo-7,8-dihydropteridin-6-yl)-2-fluorophenyl)-1-phenylmethanesulfonamide], 0.09 nM.
`CC(C)n1c(=O)c(-c2cc(F)c(NS(=O)(=O)Cc3ccccc3)c(F)c2F)cc2cnc(N[C@@H]3CNC[C@@](C)(F)C3)nc21` [Compound 27, 1-Phenyl-N-(2,3,6-trifluoro-4-(2-(((3S,5S)-5-fluoro-5-methylpiperidin-3-yl)amino)-8-isopropyl-7-oxo-7,8-dihydropyrido[2,3-d]pyrimidin-6-yl)phenyl)methanesulfonamide] registered an IC50 of 0.22 nM. This IC50 lies about 2.4-fold higher than the previous one.
To `CC(C)n1c(=O)c(-c2ccc(NS(=O)(=O)N3CCCCC3)c(F)c2)nc2cnc(N[C@@H]3CNC[C@@H](F)C3)nc21` [Compound 162, N-(2-Fluoro-4-(2-(((3S,5S)-5-fluoropiperidin-3-yl)amino)-8-isopropyl-7-oxo-7,8-dihydropteridin-6-yl)phenyl)piperidine-1-sulfonamide] belongs 1.3 nM.
To `CC(C)n1c(=O)c(-c2cc(F)c(NS(=O)(=O)CCC(F)(F)F)cc2F)nc2cnc(N[C@H]3CC[C@H](N(C)C)CC3)nc21` [Compound 189, N-(4-(2-(((1r,4r)-4-(dimethylamino)cyclohexyl)amino)-8-isopropyl-7-oxo-7,8-dihydropteridin-6-yl)-2,5-difluorophenyl)-3,3,3-trifluoropropane-1-sulfonamide] belongs 0.49 nM.
With `Cc1ccc(CS(=O)(=O)Nc2ccc(-c3nc4cnc(N[C@@H]5CNC[C@@H](F)C5)nc4n(C(C)C)c3=O)cc2F)c(C#N)c1` [Compound 166, 1-(2-Cyano-4-methylphenyl)-N-(2-fluoro-4-(2-(((3S,5S)-5-fluoropiperidin-3-yl)amino)-8-isopropyl-7-oxo-7,8-dihydropteridin-6-yl)phenyl)methanesulfonamide] the figure was 0.09 nM; with `CC(C)n1c(=O)c(-c2cccc(NS(=O)(=O)Cc3ccccc3)c2F)cc2cnc(N[C@H]3CCCNC3)nc21` [Compound 16, (S)—N-(2-Fluoro-3-(8-isopropyl-7-oxo-2-(piperidin-3-ylamino)-7,8-dihydropyrido[2,3-d]pyrimidin-6-yl)phenyl)-1-phenylmethanesulfonamide], 5.8 nM; with `CC(C)n1c(=O)c(-c2cc(F)c(NS(=O)(=O)Cc3ccccc3F)c(F)c2F)cc2cnc(N[C@@H]3CNC[C@H](O)C3)nc21` [Compound 89, 1-(2-fluorophenyl)-N-(2,3,6-trifluoro-4-(2-(((3S,5R)-5-hydroxypiperidin-3-yl)amino)-8-isopropyl-7-oxo-7,8-dihydropyrido[2,3-d]pyrimidin-6-yl)phenyl)methanesulfonamide], 0.34 nM.
`CC(C)n1c(=O)c(-c2ccc(NS(=O)(=O)Cc3ccccc3)c(F)c2)nc2cnc(N[C@H]3CC[C@H](N(C)CCF)CC3)nc21` [Compound 183, N-(2-fluoro-4-(2-(((1r,4r)-4-((2-fluoroethyl)(methyl)amino)cyclohexyl)amino)-8-isopropyl-7-oxo-7,8-dihydropteridin-6-yl)phenyl)-1-phenylmethanesulfonamide] yielded an IC50 of 0.12 nM.
Molecule `CC(C)n1c(=O)c(-c2ccc(F)c(NS(=O)(=O)Cc3ccccc3)c2F)cc2cnc(N[C@H]3CCCNC3)nc21` [Compound 19, (S)—N-(2,6-Difluoro-3-(8-isopropyl-7-oxo-2-(piperidin-3-ylamino)-7,8-dihydropyrido[2,3-d]pyrimidin-6-yl)phenyl)-1-phenylmethanesulfonamide] returned an IC50 of 2.2 nM.
With “N-(2,3,6-trifluoro-4-(8-isopropyl-2-((4-((2-methoxyethyl)(methyl)amino)cyclohexyl)amino)-7-oxo-7,8-dihydropyrido[2,3-d]pyrimidin-6-yl)phenyl)propane-1-sulfonamide [Compound 101A]”, the IC50 worked out at 0.35 nM.
With `CC(C)n1c(=O)c(-c2ccc(NS(=O)(=O)CCC(F)(F)F)c(F)c2)cc2cnc(NC3CCNCC3)nc21` [Compound 201, 3,3,3-Trifluoro-N-(2-fluoro-4-(8-isopropyl-7-oxo-2-(piperidin-4-ylamino)-7,8-dihydropyrido[2,3-d]pyrimidin-6-yl)phenyl)propane-1-sulfonamide], the IC50 amounted to 8.7 nM.
To `CC(C)n1c(=O)c(-c2cc(F)c(NS(=O)(=O)Cc3ccc(C#N)cc3)c(F)c2F)cc2cnc(N[C@@H]3CNC[C@@H](F)C3)nc21` [Compound 29, 1-(4-Cyanophenyl)-N-(2,3,6-trifluoro-4-(2-(((3S,5S)-5-fluoropiperidin-3-yl)amino)-8-isopropyl-7-oxo-7,8-dihydropyrido[2,3-d]pyrimidin-6-yl)phenyl)methanesulfonamide] belongs 0.21 nM; to `CC(C)n1c(=O)c(-c2ccc(NS(=O)(=O)Cc3ccccc3F)c(F)c2)cc2cnc(N[C@@H]3CNC[C@@H](F)C3)nc21` [Compound 90, N-(2-Fluoro-4-(2-(((3S,5S)-5-fluoropiperidin-3-yl)amino)-8-isopropyl-7-oxo-7,8-dihydropyrido[2,3-d]pyrimidin-6-yl)phenyl)-1-(2-fluorophenyl)methanesulfonamide], 0.21 nM.
For the molecule `COCCN(C)C1CCC(Nc2ncc3cc(-c4cc(F)c(NS(=O)(=O)Cc5ccccc5)c(F)c4F)c(=O)n(C(C)C)c3n2)CC1` (single isomer, unassigned) [Compound 102A, 1-Phenyl-N-(2,3,6-trifluoro-4-(8-isopropyl-2-((4-((2-methoxyethyl)(methyl)amino)cyclohexyl)amino)-7-oxo-7,8-dihydropyrido[2,3-d]pyrimidin-6-yl)phenyl)methanesulfonamide], the IC50 came to 0.16 nM. This IC50 and that of the molecule before are within 1.5-fold of each other.
The molecule `O=c1c(-c2cc(F)c(NS(=O)(=O)Cc3ccccc3)c(F)c2F)cc2cnc(N[C@@H]3CNC[C@@H](F)C3)nc2n1C1CCC1` [Compound 28, N-(4-(8-Cyclobutyl-2-(((3S,5S)-5-fluoropiperidin-3-yl)amino)-7-oxo-7,8-dihydropyrido[2,3-d]pyrimidin-6-yl)-2,3,6-trifluorophenyl)-1-phenylmethanesulfonamide] displayed an IC50 of 0.19 nM.
With `CC(C)n1c(=O)c(-c2cc(F)c(NS(=O)(=O)CCC(F)(F)F)c(F)c2)nc2cnc(N[C@@H]3CNC[C@@H](F)C3)nc21` [Compound 46, N-(2,6-Difluoro-4-(2-(((3S,5S)-5-fluoropiperidin-3-yl)amino)-8-isopropyl-7-oxo-7,8-dihydropteridin-6-yl)phenyl)-3,3,3-trifluoropropane-1-sulfonamide] the figure was 0.47 nM; with `COCCN(C)[C@H]1CC[C@H](Nc2ncc3cc(-c4ccc(NS(=O)(=O)CCC(F)(F)F)nc4)c(=O)n(C(C)C)c3n2)CC1` [Compound 126, 3,3,3-Trifluoro-N-(5-(8-isopropyl-2-(((1r,4r)-4-((2-methoxyethyl)(methyl)amino)cyclohexyl)amino)-7-oxo-7,8-dihydropyrido[2,3-d]pyrimidin-6-yl)pyridin-2-yl)propane-1-sulfonamide], 0.24 nM.
The molecule `CC(C)n1c(=O)c(-c2ccc(NS(=O)(=O)CC3CCC3)c(F)c2)nc2cnc(N[C@H]3CC[C@H](N(C)C)CC3)nc21` [Example 278, 1-Cyclobutyl-N-[4-[2-[[4-(dimethylamino)cyclohexyl]amino]-8-isopropyl-7-oxo-pteridin-6-yl]-2-fluoro-phenyl]methanesulfonamide] yielded an IC50 of 0.2 nM. The IC50 values of the last two molecules are within 1.5-fold of each other.
